pIC50: −log10 of the molar value.
Target: Human TASK-1 channels (Homo sapiens (Human), UniProt O14649)
Test: Determination of the activity on the TASK-1 channel in Xenopus oocytes (two-microelectrode voltage clamp)
Format: cell-based
Details: for pIC50: human TASK-1 expressed in Xenopus oocytes, room temperature, read-out: IC50 value for TASK-1 inhibition; for inhibition at 5 µM: compound concentration 5 μM
Method: Determination of the activity on the TASK-1 channel in Xenopus oocytes
Human TASK-1 channels were expressed in Xenopus oocytes. For this purpose, oocytes were isolated from Xenopus laevis and defoliculated. Subsequently, TASK-1-encoding RNA synthesized in vitro was injected into the oocytes. After two days of TASK-1 protein expression, TASK-1 currents were measured by two-microelectrode voltage clamp. Data were acquired and analyzed using a TEC-10cx amplifier (NPI Electronic, Tamm, Germany) connected to an ITC-16 interface (Instrutech Corp., Long Island, USA) and Pulse software (HEKA Elektronik, Lambrecht, Germany). Oocytes were clamped to −90 mV and TASK-1 mediated currents were measured during 500 ms voltage pulses to 40 mV. Oocytes were continuously superfused with ND96 buffer containing 96 mM sodium chloride, 2 mM potassium chloride, 1.8 mM calcium chloride, 1 mM magnesium chloride, 5 mM 4-(2-hydroxyethyl)-piperazine-1-ethanesulfonic acid (HEPES; pH adjusted to 7.4 with sodium hydroxide). All experiments were performed at room temperature. Test compounds were consecutively added to the bath solution at rising concentrations. Compound effects were calculated as the percentage inhibition of TASK-1 control current before compound addition. IC50 values were obtained by fitting the data to the general dose-response equation.

Chain of Human TASK-1 channels (O14649 whole entry): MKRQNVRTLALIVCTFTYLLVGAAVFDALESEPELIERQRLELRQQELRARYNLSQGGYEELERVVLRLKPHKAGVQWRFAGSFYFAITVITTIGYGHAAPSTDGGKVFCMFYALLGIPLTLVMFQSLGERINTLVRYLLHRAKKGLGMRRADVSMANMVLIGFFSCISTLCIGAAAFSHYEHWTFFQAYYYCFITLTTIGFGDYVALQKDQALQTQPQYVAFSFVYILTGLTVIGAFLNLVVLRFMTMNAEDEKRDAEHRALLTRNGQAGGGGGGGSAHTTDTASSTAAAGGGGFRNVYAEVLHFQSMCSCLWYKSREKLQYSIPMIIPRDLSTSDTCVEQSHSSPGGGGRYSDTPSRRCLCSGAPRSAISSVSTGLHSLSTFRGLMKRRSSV

For CC[C@@H](NC(=O)c1cc(C(=O)N2CCC[C@@H]2C)n2c1COCC2)c1cccc(C#N)n1 [16ah, 6-((S)-2-Methyl-pyrrolidine-1-carbonyl)-3,4-dihydro-1H-pyrrolo[2,1-c][1,4]oxazine-8-carboxylic acid [(R)-1-(6-cyano-pyridin-2-yl)-propyl]-amide], the pIC50 was 5.49.
CC[C@@H](NC(=O)c1cc(C(=O)N2CCC[C@@H]2C)n2c1COCC2)c1ccc(OC)nc1 [16ai, 6-((S)-2-Methyl-pyrrolidine-1-carbonyl)-3,4-dihydro-1H-pyrrolo[2,1-c][1,4]oxazine-8-carboxylic acid [(R)-1-(6-methoxy-pyridin-3-yl)-propyl]-amide] gave a pIC50 of 5.85.
For CC[C@@H](NC(=O)c1cc(C(=O)N2CCC[C@@H]2C)n2c1COCC2)c1cccc(C#N)c1 [16aj, 6-((S)-2-Methyl-pyrrolidine-1-carbonyl)-3,4-dihydro-1H-pyrrolo[2,1-c][1,4]oxazine-8-carboxylic acid [(R)-1-(3-cyano-phenyl)-propyl]-amide], the pIC50 was 6.26.
CC[C@@H](NC(=O)c1cc(C(=O)N2CCC[C@@H]2C)n2c1COCC2)c1ccc(C#N)cc1 [16ak, 6-((S)-2-Methyl-pyrrolidine-1-carbonyl)-3,4-dihydro-1H-pyrrolo[2,1-c][1,4]oxazine-8-carboxylic acid [(R)-1-(4-cyano-phenyl)-propyl]-amide] showed a pIC50 of 5.89.
CC(C)[C@@H](NC(=O)c1cc(C(=O)N2CCC[C@@H]2C)n2c1COCC2)c1ccc(C#N)nc1 [16am, 6-((S)-2-Methyl-pyrrolidine-1-carbonyl)-3,4-dihydro-1H-pyrrolo[2,1-c][1,4]oxazine-8-carboxylic acid [(R)-1-(6-cyano-pyridin-3-yl)-2-methyl-propyl]-amide] gave a pIC50 of 6.04.
Compound C[C@H]1CCCN1C(=O)c1cc(C(=O)NCc2ccccc2Cl)c2n1CCOC2 [16an, 6-((S)-2-Methyl-pyrrolidine-1-carbonyl)-3,4-dihydro-1H-pyrrolo[2,1-c][1,4]oxazine-8-carboxylic acid 2-chloro-benzylamide] has an inhibition at 5 µM of 81%.
For CC[C@@H](NC(=O)c1cc(C(=O)N2CCC[C@@H]2C)n2c1COCC2)c1ncccc1OC [16ao, 6-((S)-2-Methyl-pyrrolidine-1-carbonyl)-3,4-dihydro-1H-pyrrolo[2,1-c][1,4]oxazine-8-carboxylic acid [(R)-1-(3-methoxy-pyridin-2-yl)-propyl]-amide], the inhibition at 5 µM was 83%.
Compound CC[C@@H](NC(=O)c1cc(C(=O)N2CCC[C@@H]2C)n2c1COCC2)c1cccc(C(F)(F)F)n1 [16ap] has a pIC50 of 7.12.
CC(C)[C@@H](NC(=O)c1cc(C(=O)N2CCC[C@@H]2C)n2c1COCC2)c1ccc(C(F)(F)F)nc1 [16aq, 6-((S)-2-Methyl-pyrrolidine-1-carbonyl)-3,4-dihydro-1H-pyrrolo[2,1-c][1,4]oxazine-8-carboxylic acid [(R)-2-methyl-1-(6-trifluoromethyl-pyridin-3-yl)-propyl]-amide] gave a pIC50 of 6.34.
With CC[C@@H](NC(=O)c1cc(C(=O)N2CCC[C@@H]2C)n2c1COCC2)c1ccc(Cl)nc1 [16ar, 6-((S)-2-Methyl-pyrrolidine-1-carbonyl)-3,4-dihydro-1H-pyrrolo[2,1-c][1,4]oxazine-8-carboxylic acid [(R)-1-(6-chloro-pyridin-3-yl)-propyl]-amide] the pIC50 was 6.36.
For C[C@@H](NC(=O)c1cc(C(=O)N2CCC[C@@H]2C)n2c1COCC2)c1ccc(Cl)cc1 [16as, 6-((S)-2-Methyl-pyrrolidine-1-carbonyl)-3,4-dihydro-1H-pyrrolo[2,1-c][1,4]oxazine-8-carboxylic acid [(R)-1-(4-chloro-phenyl)-ethyl]-amide], the inhibition at 5 µM was 87%.
For CC[C@@H](NC(=O)c1cc(C(=O)N2CCC[C@@H]2C)n2c1COCC2)c1ccc(OC)cc1 [16at, 6-((S)-2-Methyl-pyrrolidine-1-carbonyl)-3,4-dihydro-1H-pyrrolo[2,1-c][1,4]oxazine-8-carboxylic acid [(R)-1-(4-methoxy-phenyl)-propyl]-amide], the pIC50 was 6.40.
In the case of CC[C@@H](NC(=O)c1cc(C(=O)N2CCC[C@@H]2C)n2c1COCC2)c1ccc(C(F)F)cc1 [16au, 6-((S)-2-Methyl-pyrrolidine-1-carbonyl)-3,4-dihydro-1H-pyrrolo[2,1-c][1,4]oxazine-8-carboxylic acid [(R)-1-(4-difluoromethyl-phenyl)-propyl]-amide], the pIC50 was 6.47.
For CC[C@@H](NC(=O)c1cc(C(=O)N2CCC[C@@H]2C)n2c1COCC2)c1ccc(OC(F)(F)F)cc1 [16aw, 6-((S)-Methyl-pyrrolidine-1-carbonyl)3,4-dihydro-1H-pyrrolo[2,1-c][1,4]oxazine-8-carboxylic acid [(R)-1-(4-trifluoromethoxy-phenyl)-propyl]-amide], the pIC50 was 6.55.
Compound CC[C@@H](NC(=O)c1cc(C(=O)N2CCC[C@@H]2C)n2c1COCC2)c1ccc(SC(F)(F)F)cc1 [16ax, 6-((S)-2-Methyl-pyrrolidine-1-carbonyl)-3,4-dihydro-1H-pyrrolo[2,1-c][1,4]oxazine-8-carboxylic acid [(R)-1-(4-trifluoromethylsulfanyl-phenyl)-propyl]-amide] has a pIC50 of 6.46.
In the case of CC[C@@H](NC(=O)c1cc(C(=O)N2CCC[C@@H]2C)n2c1COCC2)c1ccc(C#N)cc1F [16ay, 6-((S)-2-Methyl-pyrrolidine-1-carbonyl)-3,4-dihydro-1H-pyrrolo[2,1-c][1,4]oxazine-8-carboxylic acid [(R)-1-(4-cyano-2-fluoro-phenyl)-propyl]-amide], the pIC50 was 6.04.
Compound CC[C@@H](NC(=O)c1cc(C(=O)N2CCC[C@@H]2C)n2c1COCC2)c1ccc(F)cc1 [16az, 6-((S)-2-Methyl-pyrrolidine-1-carbonyl)-3,4-dihydro-1H-pyrrolo[2,1-c][1,4]oxazine-8-carboxylic acid [(R)-1-(4-fluoro-phenyl)-propyl]-amide] has a pIC50 of 6.92.
With CC[C@@H](NC(=O)c1cc(C(=O)N2CCC[C@@H]2C)n2c1COCC2)c1cnc(OC)c(Cl)c1 [16b, 6-((S)-2-Methyl-pyrrolidine-1-carbonyl)-3,4-dihydro-1H-pyrrolo[2,1-c][1,4]oxazine-8-carboxylic acid [(R)-1-(5-chloro-6-methoxy-pyridin-3-yl)-propyl]-amide] the pIC50 was 7.21.
Work on CC[C@@H](NC(=O)c1cc(C(=O)N2CCC[C@@H]2C)n2c1COCC2)c1c(F)cc(C#N)cc1F [16ba, 6-((S)-2-Methyl-pyrrolidine-1-carbonyl)-3,4-dihydro-1H-pyrrolo[2,1-c][1,4]oxazine-8-carboxylic acid [(R)-1-(4-cyano-2,6-difluoro-phenyl)-propyl]-amide] yielded a pIC50 of 6.85.
CC[C@@H](NC(=O)c1cc(C(=O)N2CCC[C@@H]2C)n2c1COCC2)c1ccc(C#N)cc1Cl [16bb, 6-((S)-2-Methyl-pyrrolidine-1-carbonyl)-3,4-dihydro-1H-pyrrolo[2,1-c][1,4]oxazine-8-carboxylic acid [(R)-1-(2-chloro-4-cyano-phenyl)-propyl]-amide] was tested, and the pIC50 was 6.10.
CCC(NC(=O)c1cc(C(=O)N2CCC[C@@H]2C)n2c1COCC2)c1ccc(C(C)(F)F)cc1 (stereo partly drawn) [16bc, 6-((S)-2-Methyl-pyrrolidine-1-carbonyl)-3,4-dihydro-1H-pyrrolo[2,1-c][1,4]oxazine-8-carboxylic acid {1-[4-(1,1-difluoro-ethyl)-phenyl]-propyl}-amide] showed a pIC50 of 6.26.
In the case of CC[C@@H](NC(=O)c1cc(C(=O)N2CCC[C@@H]2C)n2c1COCC2)c1ncccn1 [16bd, 6-((S)-2-Methyl-pyrrolidine-1-carbonyl)-3,4-dihydro-1H-pyrrolo[2,1-c][1,4]oxazine-8-carboxylic acid ((R)-1-pyrimidin-2-yl-propyl)-amide], the inhibition at 5 µM was 47%.
CC[C@@H](NC(=O)c1cc(C(=O)N2CCC[C@@H]2C)n2c1COCC2)c1ccc(C)cc1 [16be, 6-((S)-2-Methyl-pyrrolidine-1-carbonyl)-3,4-dihydro-1H-pyrrolo[2,1-c][1,4]oxazine-8-carboxylic acid ((R)-1-p-tolyl-propyl)-amide] showed an inhibition at 5 µM of 85%.
In the case of CC[C@@H](NC(=O)c1cc(C(=O)N2CCC[C@@H]2C)n2c1COCC2)c1ccc(Br)s1 [16bg, 6-((S)-2-methyl-pyrrolidine-1-carbonyl)-3,4-dihydro-1H-pyrrolo[2,1-c][1,4]oxazine-8-carboxylic acid [(R)-1-(5-bromo-thiophen-2-yl)-propyl]-amide], the pIC50 was 6.55.
CC[C@@H](NC(=O)c1cc(C(=O)N2CCC[C@@H]2C)n2c1COCC2)c1ncc(C(F)(F)F)cn1 [16bh, 6-((S)-2-Methyl-pyrrolidine-1-carbonyl)-3,4-dihydro-1H-pyrrolo[2,1-c][1,4]oxazine-8-carboxylic acid [(R)-1-(5-trifluoromethyl-pyrimidin-2-yl)-propyl]-amide] gave a pIC50 of 6.04.
For CCC[C@@H](NC(=O)c1cc(C(=O)N2CCC[C@@H]2C)n2c1COCC2)c1ccc(C(F)(F)F)nc1 [16bi, 6-((S)-2-Methyl-pyrrolidine-1-carbonyl)-3,4-dihydro-1H-pyrrolo[2,1-c][1,4]oxazine-8-carboxylic acid [(R)-1-(6-trifluoromethyl-pyridin-3-yl)-butyl]-amide], the pIC50 was 6.82.
Work on CC[C@H](NC(=O)c1cc(C(=O)N2CCC[C@@H]2C)n2c1COCC2)c1ccc(C(F)(F)F)nc1 [16bj, 6-((S)-2-Methyl-pyrrolidine-1-carbonyl)-3,4-dihydro-1H-pyrrolo[2,1-c][1,4]oxazine-8-carboxylic acid [(S)-1-(6-trifluoromethyl-pyridin-3-yl)-propyl]-amide] yielded a pIC50 of 5.39.

— patent US9284333B2, “Fused pyrroledicarboxamides and their use as pharmaceuticals” (SANOFI, priority 2012, dated 2016)
